Patent US11940444B2, “Method of stabilizing molecules without refrigeration using water soluble polymers and applications thereof in performing chemical reactions” (priority 2013, dated 2024)

Assays:
[1] = system: Acetylcholinesterase; conditions: Michaelis rate law, literature (Sadar and Laidler 1974); cited from earlier work
[2] = Stability of 'all-in-one' luminescent pills at room storage condition; assay type: physicochemical
Protocol: All reagents for the luciferase assay except for adenosine triphospate (ATP) were casted in a single pullulan pill. For the pullulan pills aqueous solutions of 10 mM Luciferin, […], 27 mM Coenzyme A (CoA), 170 mM Dithiothreitol (DTT), 10 mM Ethylenediaminetetraacetic acid (EDTA), 107 mM MgCO3, and 267 mM MgSO4 were prepared. 200 μL of each solution was added to 8 mL of 12 w/v % Pullulan solution. Lastly, for each pill 47 μL of the final solution was pipetted onto a PET film and dried in a glove box under nitrogen. The casted pills were then stored at room temperature.
A buffer solution containing ATP was prepared to test the activity of the luciferase pills. For the buffer solution, 16 mL of water was added to 2 mL of 2.5 mM ATP and 2 mL of 200 mM Tricine and the pH was adjusted to pH 7.8.
Once the pills were completely dried, they were collected in dark bottles. The pills were stored at room temperature and the activity of the pills was tested over time. On the day the pills were prepared, the activity of the fresh pullulan and reagent solution was tested. 47 μL of the solution and 100 μL of the buffer were added to a 96 well-plate and the luminescence was measured using the TECAN M1000. On subsequent days, the activity of the pills was measured by placing a single pill into a well and 100 μL of ATP buffer. Each test was performed with three repeats.

[3] = Loss of AChE activity as a function of temperature (30 min heat treatment); assay type: physicochemical; conditions: 30-minute heat treatment at 50° C. or above
Protocol: (§1) To test the ability of pullulan to retain AChE activity, 1 μL of 250 U/mL AChE and 40 μL of 120 g/L pullulan were mixed and casted into tablets. The solution was air-dried overnight at 21° C. and 48% RH; tablet formation was considered not fully completed if the tablet could not be removed from the bottom of the well; and the resulting tablets were kept at room temperature for different lengths of time before being tested. To test AChE activity, 195 μL of Tris-HCl (100 mM, pH 8) was used to dissolve the tablet and 5 μL of fresh 80 mM IDA was added. The solution was then transferred to a 96-well plate and the absorbance was measured at A605 on TECAN Infinite M200 Pro microtiter plate reader.
The loss of AChE activity, however, is attributed to thermal denaturation. To further examine the role of pullulan in stabilizing AChE, activity of AChE was monitored as a function of temperature. For this experiment, native (unencapsulated) AChE and the corresponding pullulan tablet were treated at a given temperature for 30 min, followed by activity assessment at room temperature. […] In stark contrast, AChE tablets retained ca. 90% of their initial activity even after a 30-minute incubation at 90° C.

[4] = Comparison of AChE activity with different concentrations of pullulan after 2 weeks; assay type: physicochemical; conditions: AChE in 125 and 250 mg/mL pullulan, 2 weeks age
Protocol: To determine the effect the concentration of pullulan has on the maintenance of the AChE enzyme two samples of 2 weeks age were tested (125 and 250 mg/mL). […] More trials will be conducted at 1 week intervals to determine if there is a noticeable color intensity difference over time.

[5] = Long-term stability of AChE and IDA tablets stored at room temperature; assay type: physicochemical
Protocol: To test the ability of pullulan to retain IDA activity, 10 μL of 40 mM IDA and 40 μL of 120 g/L pullulan in water were mixed and casted in a polypropylene mold with wells with a size of 3 mm in diameter×3 mm in depth. The solution was air-dried overnight at 21° C. and 48% RH; tablet formation was considered not fully completed if the tablet could not be removed from the bottom of the well. […] To test IDA activity, 199 μL of Tris-HCl (100 mM, pH 8) was used to dissolve the pill and 1 μL of fresh 250 U/mL AChE was added. The solution was then transferred to a 96-well plate and the absorbance of the developing blue color was measured at A605 on a TECAN Infinite M200 Pro microtiter plate reader.
as §1, with “and the resulting tablets were kept at room temperature for different lengths of time before being tested.” left out

[6] = AChE stability over time in pullulan (reaction rate with IDA, absorbance at 605 nm); assay type: physicochemical
Protocol: In order to quantify the protection that pullulan provides to AChE over time, it was attempted to create a set of samples (40) which will be tested over time. Each sample (cast into a 600 μL eppendorf tube) contains: • i. 40 μL of 200 mg/mL pullulan solution • ii. μL of AChE (250 U/L)
Each sample tube was allowed to dry, then was sealed and placed into a plastic bag and stored at ambient conditions (˜20° C.). At selected time points, the activity of the solution was tested by measuring absorbance over time, and finding the associated reaction rate (corresponding to the activity of the enzyme). To measure the activity, three (3) samples were taken (to establish triplicate repeats), and 195 μL of Tris buffer (100 mM, pH=8.0) was added to each Eppendorf tube and allowed to dissolve the […]. The resulting solution was then added to a 96 well plate, and absorbance was measured continuously at 605 nm after the addition of 5 μL of 80 mM IDA.

[7] = Testing IDA capsules and pullulan films (IDA protection); assay type: physicochemical
Protocol: 15 μL of IDA dissolved in methanol was added to a pullulan capsule (cast in an eppendorf tube lid), and sealed with a 5 mL (50 mg/mL, 3.5 cm petri dish) PVA film using a PVA glue solution. Another capsule was prepared with IDA in a powdered form. The capsules were left to determine if the PVA will serve as an oxygen barrier to protect the IDA from oxidation over a period of time
In order to determine if pullulan works to stabilize IDA when the IDA is mixed into the pullulan solution, a solution of 300 mg/mL pullulan was mixed, and 5 μL of IDA dissolved in methanol was added to each 30 μL of sample.
Five samples were cast (total volume of 35 μL) into the caps of 0.6 mL Eppendorf microcentrifuge tubes and left to dry. The activity of the IDA will be measured by: • i. checking for a pink/red color change, which indicates the IDA is hydrolysed or oxidized • ii. testing with AChE to ensure that a blue color change still results Pesticide Tests
Previously explored was the addition of IDA (solution and powder form) to two PVA capsules. 5 uL of IDA dissolved in methanol was added to one, and IDA in powder form was added to the other.
Also tested was one of the capsules with IDA solution cast into a pullulan film (in the lid of a 0.6 mL eppendorf tube). […]

[8] = molecular target: AChE (Electrophorus electricus, UniProt O42275); test: Pesticide tests in Eppendorf tubes (AChE/IDA color change); assay type: biochemical; conditions: No. 1: malathion 10-2 mol/L, 5 μL AChE, 250 mg/mL pullulan, 30 μL, incubation 15 min
AChE, sequence (O42275 24-633): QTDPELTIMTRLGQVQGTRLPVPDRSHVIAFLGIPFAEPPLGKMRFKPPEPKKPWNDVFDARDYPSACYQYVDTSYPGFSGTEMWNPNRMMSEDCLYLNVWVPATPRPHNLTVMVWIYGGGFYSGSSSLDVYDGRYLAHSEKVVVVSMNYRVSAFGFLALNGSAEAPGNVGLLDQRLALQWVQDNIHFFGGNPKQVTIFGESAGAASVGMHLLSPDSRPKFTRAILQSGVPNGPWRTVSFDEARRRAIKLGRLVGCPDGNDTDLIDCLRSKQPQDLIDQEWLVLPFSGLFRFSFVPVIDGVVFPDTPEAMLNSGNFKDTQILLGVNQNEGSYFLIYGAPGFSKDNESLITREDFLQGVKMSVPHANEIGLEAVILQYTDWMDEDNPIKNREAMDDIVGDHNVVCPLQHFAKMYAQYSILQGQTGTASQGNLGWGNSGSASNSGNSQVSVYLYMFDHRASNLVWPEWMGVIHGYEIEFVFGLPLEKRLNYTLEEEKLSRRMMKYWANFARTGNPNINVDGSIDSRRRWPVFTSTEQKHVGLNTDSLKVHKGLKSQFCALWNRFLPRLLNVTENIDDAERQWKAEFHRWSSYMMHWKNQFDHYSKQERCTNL
Protocol: Three trials were conducted with fresh malathion (from Bioninterfaces Institute), which was diluted with Tris buffer to a concentration of 10-2 mol/L. A control sample was also done with 5 μL of AChE and 250 mg/mL pullulan to ensure that a color change would occur. The color change was initially green (˜2 minutes), then became a blue color which increased in intensity over time.
Information about the contents and the results of each Eppendorf tube test with pesticides is presented below. A control test was performed with 5 μL of AChE and L of dH2O with 5 μL of IDA/methanol, and the color change to blue-green was very quick.

[9] = ATCh stability (Ellman assay reagents); assay type: physicochemical; conditions: several days in the refrigerator and in a fume hood with no protection
Protocol: When tested in solution, with the following amounts of reagents were used: • i. 15 uL ATCh (300 uM), 1 uL AChE (10 or 250 U/L) • ii. 50 uL of 500 uM DTNB • iii. 34 uL Tris
Acetylthiocholine (ATCh) is an unstable molecule, and will hopefully be stabilized on paper. However, after several tests were performed, it was noted that after being left in the refrigerator for several days, and left in a fume hood with no protection against hydrolyzation, the ATCh was still stable when tested. The most likely reason for the continued activity of the ATCh is due to the Tris buffer it was dissolved in being evaporated, and the ATCh in a solid (or powdered) form is stable. Accordingly, it should be reliable to store the ATCh as a powder form, preferably inside of a soluble (pullulan) capsule.

[10] = molecular target: T1, Luciferase (Photinus pyralis, UniProt P08659); test: ATP detection assay with luminescent pills; assay type: biochemical, Firefly
T1 construct: purchased Sigma-Aldrich
T1 sequence (P08659 whole entry): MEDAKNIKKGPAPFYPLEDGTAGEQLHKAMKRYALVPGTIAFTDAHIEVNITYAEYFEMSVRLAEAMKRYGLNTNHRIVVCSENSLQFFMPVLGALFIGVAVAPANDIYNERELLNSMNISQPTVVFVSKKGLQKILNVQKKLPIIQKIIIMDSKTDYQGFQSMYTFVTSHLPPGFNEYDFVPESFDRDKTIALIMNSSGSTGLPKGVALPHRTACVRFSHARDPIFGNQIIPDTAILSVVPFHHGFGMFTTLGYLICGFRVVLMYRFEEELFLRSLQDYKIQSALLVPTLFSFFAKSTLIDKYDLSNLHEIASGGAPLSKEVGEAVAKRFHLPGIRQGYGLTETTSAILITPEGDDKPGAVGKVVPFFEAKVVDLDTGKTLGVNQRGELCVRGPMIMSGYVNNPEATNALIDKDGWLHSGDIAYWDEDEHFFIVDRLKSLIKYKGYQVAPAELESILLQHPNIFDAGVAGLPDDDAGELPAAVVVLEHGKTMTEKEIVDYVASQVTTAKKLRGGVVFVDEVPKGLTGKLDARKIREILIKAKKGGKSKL
Protocol: The sensitivity of the luciferase assay was also investigated. To determine the detection limit of the assay, different ATP buffers were prepared with concentration ranging from 0 pM to 1000 pM and tested it with luminescent pills.

What does the source list for `CC(=O)Oc1cn(C)c2ccccc12` [N-methylindoxyl acetate]?
Km [1]: 2580 µM; kc [1]: 320 s⁻¹

Which “loss of activity in buffer” value ([2]; same components stored in buffer solution) does the source give for Luciferase here?
The value was “loses its activity in buffer solution in few hours”.

And the “activity of enzyme alone in pullulan pills” value ([2]; stored at room temperature)?
Its value is “active even after four months”.

What does the source list for Acetylcholinesterase [AChE]?
activity after heat treatment [3]: completely inactive; activity of the enzyme over two weeks [4]: not much decreased; time to become completely inactive ([5]; stored in solution at room temperature): ≤ 3 days; activity as compared to a fresh sample ([6]; AChE cast in 200 mg/mL pullulan, stored at ambient conditions (~20 °C), over 30 days): approximately 63%; activity of AChE left out without pullulan ([6]; without any pullulan, left out for 24 hours): completely inactivated

For indoxyl acetate [IDA], which “time protected from hydrolyzation/oxidation” value ([7]; IDA solution cast into a pullulan film) is on record?
The value was roughly 2 weeks.

And the “IDA stability in PVA capsules” value ([7]; IDA solution or powder in PVA capsules, tested with AChE)?
The value was “kept stable over a period of two weeks”.

What about the complete inactivation ([5]; in solution at room temperature) of the same compound?
Its complete inactivation is “completely inactive within a week”.

What about the loss of activity ([5]; in solution at room temperature, within one day) of the same compound?
The loss of activity was 70%.

Which “Result (color change)” value [8] does the source give for `CCOC(=O)CC(SP(=S)(OC)OC)C(=O)OCC` (centres unmarked) [malathion] here?
The value was “IDA/methanol. No color change at 5 minutes”.

With `CC(=O)SCC[N+](C)(C)C` [ATCh, Acetylthiocholine] as the compound, how does the “stability of ATCh” value [9] read?
The value was “still stable”.

For `Nc1ncnc2c1ncn2[C@@H]1O[C@H](COP(=O)(O)OP(=O)(O)OP(=O)(O)O)[C@@H](O)[C@H]1O` [ATP, Adenosine triphosphate], which “limit of detection of ATP concentration” value ([10]; at 3a above background, tricine buffer) is on record?
The value was 16 pM.

And the “limit of detection as amount of ATP” value ([10]; in 100 uL added to the pill)?
Its value is 1.6 fmol.
